In patent US8513275B2 (Salix Pharmaceuticals, Ltd, priority 2010, dated 2013):
“Also recorded” adds a separate entry of the source. Like-named read-outs stand apart in the source and are kept apart here. Marks after values point to notes of the source that are not given here.

Columns and labels:
[1] = Dynamic vapor sorption (moisture sorption, moisture balance) with post-sorption XRPD; assay type: physicochemical; settings: for weight loss from 95 to 5% RH: desorption 95-5% RH; for post-moisture sorption (post-MB / post-DVS) XRPD result: solid after DVS cycle; for weight gain from 5 to 95% RH: sorption 5-95% RH; for overall weight loss in moisture sorption: whole sorption/desorption cycle
Method: (§1) Automated vapor sorption (VS) data were collected on a VTI SGA-100 Vapor Sorption Analyzer. NaCl and PVP were used as calibration standards. Samples were not dried prior to analysis. […] The equilibrium criterion used for analysis was less than 0.0100% weight change in 5 minutes with a maximum equilibration time of 3 hours. Data were not corrected for the initial moisture content of the samples.
as §1, with “Automated dynamic” for “Automated”, “(DVS)” for “(VS)”, “hours.” for “hours. Data were not corrected for the initial moisture content of the samples.”

[2] = Relative humidity stressing at ambient temperature, XRPD of stressed solid; assay type: physicochemical
[3] = Ambient storage / exposure to ambient conditions, XRPD; assay type: physicochemical; settings: for XRPD result after ambient storage: 8 days of ambient storage, large-scale sample
Source text: Form θ drying and physical stability evaluation was not formally included in the protocol. […] The initial sample was generated from nitrogen drying of Form ζ. The initial XRPD pattern was acquired utilizing parameters not consistent with the other data acquisition.

[4] = Particle size distributions for Rifaximin forms; assay type: physicochemical; settings: for d10: 10% of the total volume of particles less than the indicated size; for d50: 50% of the total volume of particles less than the indicated size; for d90: 90% of the total volume of particles less than the indicated size
[5] = VS w/ACN
Method: Subsequent characterization of cocrystal 2 was conducted quickly after isolating vapor stressed samples.
The 20-mL vial was capped and left at ambient conditions for vapor stress.

[6] = water slurry, 5 minutes, 3 hours and 7 hours
Method: In order to be able to measure the aqueous solubility (equilibrium or kinetic) of a cocrystal, it should remain intact upon exposure to aqueous conditions for some duration. If it dissociates or changes forms quickly upon contact with water, intrinsic dissolution may be introduced as an alternative to solubility, in which dissolution of a pellet of the cocrystal is measured; however, the cocrystal must not change form upon compression.

[7] = 1000 psi, 1 min.
[8] = Properties of the Rifaximin:piperazine cocrystals (summary, Table 12); settings: summary column of Table 12
[9] = listed as post-drying rifaximin Form κ
[10] = listed as As-Prepared Rifaximin Form κ

SMILES: CO[C@H]1/C=C/O[C@@]2(C)Oc3c(C)c(O)c4c(O)c(c5c(nc6cc(C)ccn65)c4c3C2=O)NC(=O)/C(C)=C\C=C\[C@H](C)[C@H](O)[C@@H](C)[C@@H](O)[C@@H](C)[C@H](OC(C)=O)[C@@H]1C [Post-Drying Rifaximin Form κ, rifaximin]
- weight loss from 95 to 5% RH [1]: 11.0% wt lost from 95%-5% RH
- weight loss from 95 to 5% RH [1, 9]: 11%
- weight loss upon equilibration at 5% RH ([1]; initial equilibration at 5% RH): 0.1% wt loss upon equilibration at 5% RH
- weight loss upon equilibration at 5% RH ([1]; initial equilibration at 5% RH, listed as post-drying rifaximin Form κ): 0.1%
- post-moisture sorption (post-MB / post-DVS) XRPD result [1]: Disordered κ
- post-moisture sorption (post-MB / post-DVS) XRPD result [1, 9]: disordered
- weight gain from 5 to 95% RH [1]: 7.7% wt gain from 5%-95% RH
- weight gain from 5 to 95% RH [1, 9]: 7.7%
- overall weight loss in moisture sorption [1]: approximately 3.3%
- XRPD result after humidity stress ([2]; 84% RH, RT, 19 days): Disordered κ

SMILES: C1CNCCN1.CC#N.COC1C=COC2(C)Oc3c(C)c(O)c4c(O)c(c5c(nc6cc(C)ccn65)c4c3C2=O)NC(=O)C(C)=CC=CC(C)C(O)C(C)C(O)C(C)C(OC(C)=O)C1C.COC1C=COC2(C)Oc3c(C)c(O)c4c(O)c(c5c(nc6cc(C)ccn65)c4c3C2=O)NC(=O)C(C)=CC=CC(C)C(O)C(C)C(O)C(C)C(OC(C)=O)C1C (stereo not drawn) [cocrystal 2, rifaximin:piperazine cocrystal 2]
- behaviour upon exposure to ambient conditions [3]: rapidly desolvates
- form conversion after exposure to ambient conditions ([3]; longer exposure (ex. 12 days)): conversion to material similar to cocrystal 1, but exhibiting broad peaks with additional peaks at approximately 5 and 17°2θ
- form conversion after exposure to ambient conditions ([3]; relatively short exposure (ex. 5-6 hours)): convert to cocrystal 1

SMILES: CO[C@H]1/C=C/O[C@@]2(C)Oc3c(C)c(O)c4c(O)c(c5c(nc6cc(C)ccn65)c4c3C2=O)NC(=O)/C(C)=C\C=C\[C@H](C)[C@H](O)[C@@H](C)[C@@H](O)[C@@H](C)[C@H](OC(C)=O)[C@@H]1C [Form θ, rifaximin]
- weight loss from 95 to 5% RH ([1]; listed as Rifaximin Form θ): 5.826% wt lost from 95%-5% RH
- weight loss from 95 to 5% RH ([1]; listed as rifaximin Form θ): 5.8%
- weight loss upon equilibration at 5% RH ([1]; initial equilibration at 5% RH, listed as rifaximin Form θ): 7.3%
- wt change upon equilibration at 5% RH ([1]; signed change, initial equilibration at 5% RH): −7.314% wt change upon equilibration at 5% RH
- post-moisture sorption (post-MB / post-DVS) XRPD result ([1]; listed as Rifaximin Form θ): ι
- post-moisture sorption (post-MB / post-DVS) XRPD result ([1]; listed as rifaximin Form θ): Form ι; also recorded: Form t
- weight gain from 5 to 95% RH ([1]; listed as Rifaximin Form θ): 5.733% wt gain from 5%-95% RH
- weight gain from 5 to 95% RH ([1]; listed as rifaximin Form θ): 5.7%
- overall weight loss in moisture sorption ([1]; listed as rifaximin Form θ): approximately 7.4%
- XRPD result after ambient storage [3]: remained Form θ
- XRPD result after ambient storage ([3]; listed as Rifaximin Form θ): θ (after 8 days of ambient storage)
- XRPD result on reanalysis ([3]; reanalyzed within hours, nitrogen-dried sample): conversion to Form ι

SMILES: CO[C@H]1/C=C/O[C@@]2(C)Oc3c(C)c(O)c4c(O)c(c5c(nc6cc(C)ccn65)c4c3C2=O)NC(=O)/C(C)=C\C=C\[C@H](C)[C@H](O)[C@@H](C)[C@@H](O)[C@@H](C)[C@H](OC(C)=O)[C@@H]1C [η, rifaximin]
- d10 [4]: 3.857 μm
- d50 [4]: 79.844 μm
- d90 [4]: 290.353 μm

SMILES: CO[C@H]1/C=C/O[C@@]2(C)Oc3c(C)c(O)c4c(O)c(c5c(nc6cc(C)ccn65)c4c3C2=O)NC(=O)/C(C)=C\C=C\[C@H](C)[C@H](O)[C@@H](C)[C@@H](O)[C@@H](C)[C@H](OC(C)=O)[C@@H]1C [Form κ, rifaximin]
- weight loss from 95 to 5% RH [1, 10]: 12% wt loss from 95 to 5% RH.
- weight loss from 95 to 5% RH ([1]; listed as rifaximin Form κ): 12%
- weight loss upon equilibration at 5% RH ([1]; initial equilibration at 5% RH, listed as As-Prepared Rifaximin Form κ): 7.5% wt loss upon equilibration at 5% RH
- weight loss upon equilibration at 5% RH ([1]; initial equilibration at 5% RH, listed as rifaximin Form κ): 7.5%
- post-moisture sorption (post-MB / post-DVS) XRPD result [1, 10]: Disordered
- post-moisture sorption (post-MB / post-DVS) XRPD result ([1]; listed as rifaximin Form κ): disordered
- weight gain from 5 to 95% RH [1, 10]: 4.6% wt gain from 5 to 95% RH
- weight gain from 5 to 95% RH ([1]; listed as rifaximin Form κ): 4.6%
- overall weight loss in moisture sorption [1, 10]: Overall wt loss = 14. 9% (equivalent to ~2 moles of IPA)
- overall weight loss in moisture sorption ([1]; listed as rifaximin Form κ): approximately 14.9%
- d10 [4]: 15.551 μm
- d50 [4]: 90.684 μm
- d90 [4]: 225.815 μm

SMILES: C1CNCCN1.COC1C=COC2(C)Oc3c(C)c(O)c4c(O)c(c5c(nc6cc(C)ccn65)c4c3C2=O)NC(=O)C(C)=CC=CC(C)C(O)C(C)C(O)C(C)C(OC(C)=O)C1C.COC1C=COC2(C)Oc3c(C)c(O)c4c(O)c(c5c(nc6cc(C)ccn65)c4c3C2=O)NC(=O)C(C)=CC=CC(C)C(O)C(C)C(O)C(C)C(OC(C)=O)C1C (stereo not drawn) [cocrystal 1, rifaximin:piperazine cocrystal 1]
- hygroscopicity by DVS [1]: quite hygroscopic
- weight loss from 95 to 5% RH ([1]; listed as sample 4): 11.47% weight loss from 95-5% RH
- weight loss upon equilibration at 5% RH ([1]; initial equilibration at 5% RH): 3.54% weight loss at 5% RH
- post-moisture sorption (post-MB / post-DVS) XRPD result [1]: broad peaks, similar to cocrystal 1 with additional peaks at approximately 5 and 17°2θ; also recorded: broad peaks, similar to cocrystal 1 plus peaks at approximately 5 and 17°2θ
- post-moisture sorption (post-MB / post-DVS) XRPD result ([1]; listed as Cocrystal 1): conversion to a material similar to cocrystal 1 plus two additional peaks
- weight gain from 5 to 95% RH ([1]; listed as sample 4): 10.78% weight gain from 5-95% RH
- XRPD result after RH stress ([2]; ~75% RH, 1 week): broad peaks, similar to cocrystal 1+ peak at ˜5°2θ
- XRPD result after RH stress ([2]; ~75% RH, 1 week, listed as Cocrystal 1): broad peaks, similar to cocrystal 1 with an additional peak at approximately 5°2θ
- XRPD result after RH stress ([2]; ~75% RH, 2 weeks): broad peaks, similar to cocrystal 1+ peak at ˜5°2θ
- XRPD result after RH stress ([2]; ~75% RH, 2 weeks, listed as Cocrystal 1): broad peaks, similar to cocrystal 1 with an additional peak at approximately 5°2θ
- XRPD result after RH stress ([2]; ~75% RH, 3 days): broad peaks, similar to cocrystal 1+ peak at ˜5°2θ
- XRPD result after RH stress ([2]; ~75% RH, 3 days, listed as Cocrystal 1): broad peaks, similar to cocrystal 1 with an additional peak at approximately 5°2θ
- XRPD result after RH stress ([2]; ~97% RH, 1 week, listed as Cocrystal 1): Conversion to Rifaximin Form β-1
- XRPD result after RH stress ([2]; ~97% RH, 1 week, listed as Rifaximin:Piperazine Cocrystal 1): API, Form β-1
- XRPD result after RH stress ([2]; ~97% RH, 3 days, listed as Cocrystal 1): conversion to Rifaximin Form β-1
- XRPD result after RH stress ([2]; ~97% RH, 3 days, listed as Rifaximin:Piperazine Cocrystal 1): API, Form β-1
- XRPD result after vapor stress with ACN ([5]; 7 days): conversion to cocrystal 2
- XRPD result after vapor stress with ACN ([5]; 7 days, listed as Cocrystal 1): Cocrystal 2 resulted by XRPD
- XRPD result after vapor stress with ACN ([5]; 7 days, listed as Rifaximin:Piperazine Cocrystal 1): cocrystal 2^c
- XRPD result after vapor stress with ACN ([5]; 24 days, sample stood capped at ambient approx. 5-6 hours before XRPD): gave cocrystal 1 by XRPD
- XRPD result after vapor stress with ACN ([5]; 24 days, sample stood capped at ambient approx. 5-6 hours before XRPD, listed as Rifaximin:Piperazine Cocrystal 1): cocrystal 1^b
- XRPD result after slurrying in water ([6]; listed as Rifaximin:Piperazine Cocrystal 1): API, Form β-1
- XRPD result after slurrying in water ([6]; listed as Rifaximin:piperazine cocrystal 1): conversion to Rifaximin Form β-1
- XRPD result after compression [7]: additional peaks at approximately 5 and 17°2θ were observed by XRPD, and the material was low crystalline
- Properties (hygroscopicity, stability) [8]: likely falls apart upon heating; also recorded: hygroscopic

SMILES: CO[C@H]1/C=C/O[C@@]2(C)Oc3c(C)c(O)c4c(O)c(c5c(nc6cc(C)ccn65)c4c3C2=O)NC(=O)/C(C)=C\C=C\[C@H](C)[C@H](O)[C@@H](C)[C@@H](O)[C@@H](C)[C@H](OC(C)=O)[C@@H]1C [As received, rifaximin]
- d10 [4]: 0.399 μm
- d50 [4]: 8.629 μm
- d90 [4]: 33.891 μm
